Assay [1] concerns astrocytes. Briefly: MTT viability assay. The class given is cell-based. To be noted: Mus musculus, Astrocyte; CDC54K hits; cellular toxicity, 0-200 uM. On the procedure:
(§1) Primary cultures of cerebrocortical astrocytes were obtained from 1-2-day-old OF1 mouse pups (Charles River Laboratories). Briefly, cortices were isolated and minced in small pieces under a dissecting microscope. The cells were incubated for 30 min at 37° C. in a solution containing 20 U/ml of papain enzyme (Worthington Biochemical), L-cysteine 1 mM (Sigma), and 10 kU/ml DNase I (Worthington Biochemical) for an enzymatic dissociation. Papain activity was stopped by the addition of fetal calf serum (FCS) to the solution, and a single-cell suspension was then obtained by mechanical dissociation, which consisted in cells trituration in a DMEM (D7777, Sigma-Aldrich) medium (supplemented with 44 mm NaHCO3, and 10 ml/L antibiotic/antimycotic solution) containing 10% FCS. The cells were seeded at an average density of 6×10^4 cells/cm^2 in poly-D-lysine-coated 96, 12 or 6-well culture plates, depending on their use, and incubated at 37° C. in a humidified atmosphere containing 5% CO2/95% air. Culture medium was renewed twice per week. Cells were stimulated and harvested between DIV14 and DIV17, when confluence and cell growth were optimal.
For cell toxicity determination, astrocytes in 96-well plates were stimulated 24 h (37° C. 5% CO2/95% air) with a gradient ranging from 0.1 to 200 μM of tested compounds. After stimulation, 5 mg/ml thiazol blue tetrazolium bromide (MTT, Sigma-Aldrich) in warm D5030 complete medium was added to each well, and cells were incubated for 4 h at 37° C. (5% CO2). The medium was then removed by aspiration, and the reaction was stopped by the addition of 50 μl DMSO per well.
The amount of reduced MTT (formazan) solubilized in DMSO was then determined spectrophotometrically using absorbance at 570 nm (Safire 2; Tecan).
MTT cellular viability assay was performed on astrocytes exposed to molecules from the Prestwick library (Prestwick hits; concentrations ranging from 0 uM to 200 uM).
MTT cellular viability assay was performed on astrocytes exposed to CDC54K hits (concentrations ranging from 0 uM to 200 uM).

Assay [2] relates to astrocytes. Briefly: Intracellular glycogen quantification. The format is cell-based, mouse. To be noted: CDC54K hits; 10 μM, 3 h.
Assay [3] has as its system astrocytes. Briefly: Production of H2O2 (mitochondrial activity). The class given is cell-based. The settings on record: Mus musculus, Astrocyte, 1.5 h; CDC54K hits; 0-200 uM, 90 min. On the procedure: as §1
Hydrogene peroxide (H2O2) released in the supernatant is detected enzymatically with Amplex red (Zhou, Diwu et al. 1997). Oxidation of Amplex red is catalysed by the horseradish peroxidase in presence of H2O2 into highly fluorescent resorufin. Fluorescence measure is read at 545 nm extinction, 590 nm emission. The amount of H2O2 was expressed relatively to the proteins content extracted from the cells in culture. […]
Mitochondrial respiration in astrocytes was measured through production of H2O2 at 90 min after stimulation with CDC54K hits (ranging from 0 to 200 uM).

The test system of assay [4] is astrocytes. The assay can be described thus: Extracellular lactate quantification. The format is cell-based, mouse. To be noted: for EC50: Mus musculus, Astrocyte, 1.5 h, CDC54K hits, 0-100 uM, 90 min, read-out: Lactate EC50; for Score_LACTATE: Appendix I, secondary screening, dosage of extracellular lactate. On the procedure: as §1
Secretion of L-lactate was determined in the extracellular medium of 96-well plated astrocytes after 90 min stimulation (at 37° C., in 5% CO2/95% air conditions) with the drug of interest. The stimulation medium was composed of D5030 medium (completed with D-glucose 5 mM and 44 mM sodium bicarbonate) for 90 min in concentrations ranging from 0 to 100 μM.
Briefly, 200 μl of a Glycine (Sigma)-Semicarbazide (Acros) 0.2M pH 10 buffer containing 3 mM NAD (Roche) and LDH 14 U/ml (Roche) was added to each well of a 96-well plate containing 30 μl aliquots complemented with 20 μl fresh complete D5030 medium. Samples were incubated at 37° C. for 1 h. After samples cooled down at room temperature, the fluorescence intensity (340 nm excitation/450 nm emission) that represents the amount of NADH produced was measured, and lactate concentration values were determined from a standard curve of L-lactate.
Statistical analysis consisted in ANOVA followed by Fisher LSD post-hoc test for pair-wise comparisons.
Levels of lactate secreted by astrocytes were measured in the extracellular medium at 90 min after stimulation with hits (molecules) from the CDC54K library.

A further assay has as its system primary astrocytes. The assay can be described thus: High throughput screening for lactate secretion: acidification of extracellular medium (SNARF5). The settings on record: for Emax at 10 µM: Mus musculus, Astrocyte, 1.5 h; for Emax at 10 µM / Score / HTS Score (SNARF5): 90 min, 10 uM; for Score_SNARF: primary screening confirmation (SNARF5). Details: key to Score / HTS Score (lactate) / HTS Score (SNARF5) / Score_SNARF: fraction of positive control activity (positive control = 100%). The class given is cell-based, mouse. In short, it runs like this: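 Mouse cortical astrocytes (DIV17) stimulated 90 min at 10 uM compound (1% DMSO) in low-bicarbonate DMEM, 5 mM glucose, with SNARF-5F; extracellular acidification read as 630/580 nm emission ratio (exc 480 nm). Duplicates; score as % of CCCP 2 uM control, hits >3× summed SD above DMSO.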

[5] abbreviates: Appendix I, primary screening, relative to positive control, read-out: Score.
Where [6] appears, read: CDC54K hits, relative to positive control CCCP 2 uM, read-out: HTS Score (SNARF5).
Where [7] appears, read: Appendix I, primary screening, relative to positive control.
Setting [8] is: CDC54K hits, relative to positive control CCCP 2 uM.

Read-outs that look alike come from different tables or passages of the source.

The text below walks through data of patent US12274703B2, “Compositions and methods of treatment for neurological disorders comprising a dementia” (Gliapharm SA, priority 2017, dated 2025).

Regarding `Fc1ccc(-c2cc3n(n2)CCCN(Cc2ccncc2)C3)cc1` [T202-1455], the IC50 with astrocytes [1] and in the assay with astrocytes [3] was more than 200 µM each time. Further, in the assay on astrocytes [2], the “Glycogen (statistical significance of glycogen degradation)” value is given as “ns”. Further, the EC50 in the assay on astrocytes [4] stood at 15 µM. Moreover, the Emax at 10 µM in the assay on primary astrocytes (setting [5]) and in the assay on primary astrocytes (setting [6]) was 97.1% in each case.

In the case of `CCc1ccc(S(=O)(=O)Nc2ccc3[nH]ncc3c2)cc1` [T5599014], the results for the half-maximal inhibitory concentration (IC50) in the assay on astrocytes [1] and in the assay with astrocytes [3] were more than 200 µM and 158 µM, respectively. For the same compound, in the assay with astrocytes [2], the “Glycogen (statistical significance of glycogen degradation)” value is listed as “ns”. The compound further gave a Score_LACTATE with astrocytes [4] of 0.4419. Moreover, the EC50 in the assay with astrocytes [4] worked out at 8.8 µM. Also, the Score_SNARF with primary astrocytes (Appendix I) came out at 0.5778. In addition, in the assay on primary astrocytes (setting [7]), the Score was 0.5424. The “HTS Score (SNARF5)” value in the assay with primary astrocytes (setting [8]) is 0.542.

Regarding `CC(=O)c1cccc(NC(=O)C(C)Sc2ncnc3ccccc23)c1` (stereo not shown) [T0511-9200], the IC50 with astrocytes [1] and in the assay with astrocytes [3] was more than 200 µM in each case. Moreover, the “Glycogen (statistical significance of glycogen degradation)” value in the assay with astrocytes [2] was “ns”. The EC50 in the assay on astrocytes [4] was found to be 10.2 µM. Moreover, the Emax at 10 µM with primary astrocytes (setting [5]) and with primary astrocytes (setting [6]) was 84.4% each time.

Take `CSc1cccc(NS(=O)(=O)c2ccc3onc(C(=O)N4CCCC4)c3c2)c1` [L995-0125]: the IC50 in the assay with astrocytes [1] is more than 200 µM. Further, the “Glycogen (statistical significance of glycogen degradation)” value with astrocytes [2] is “ns”. Also, half-maximal inhibition in the assay on astrocytes [3] (IC50) required 173 µM. In addition, in the assay with astrocytes [4], the Score_LACTATE amounted to 0.9122 and the half-maximal effective concentration (EC50) was 2 µM. Also, the Score_SNARF in the assay on primary astrocytes (Appendix I) stood at 0.8016. For the same compound, the Score in the assay with primary astrocytes (setting [7]) was 0.8545. The “HTS Score (SNARF5)” value in the assay with primary astrocytes (setting [8]) turned out to be 0.854.

For orientation: IC50 means the midpoint of a concentration-inhibition curve. Usually EC50 stands for the concentration giving half of the maximal effect.
